Laboratory results reported in the kinase profiling compilation of Christmann-Franck et al. (2016).

How the values were obtained:
Assay in all cases: KINOMEscan competition binding
Details in all cases: compound 10.0 µM
[1] = system: ABL1 (human), P00519 [E255K]
[2] = system: ABL1 (human), P00519 [Y253F]
ANKK1 (human) = ANKK1 (human) (UniProt Q8NFD2)
AURKC (human) = AURKC (human) (UniProt Q9UQB9)
CDC2L2 (human) = CDC2L2 (human) (UniProt Q9UQ88)
CDK11B (human) = CDK11B (human) (UniProt P21127)
CDK15 (human) = CDK15 (human) (UniProt Q96Q40)
CDK18 (human) = CDK18 (human) (UniProt Q07002)
CDK2 (human) = CDK2 (human) (UniProt P24941)
CHUK (human) = CHUK (human) (UniProt O15111)
CLK3 (human) = CLK3 (human) (UniProt P49761)
DCLK3 (human) = DCLK3 (human) (UniProt Q9C098)
[3] = system: EGFR (human), P00533 [L861Q]
EIF2AK2 (human) = EIF2AK2 (human) (UniProt P19525)
EPHA1 (human) = EPHA1 (human) (UniProt P21709)
EPHA2 (human) = EPHA2 (human) (UniProt P29317)
Sequence of EPHA2 (human) (P29317 whole entry, looked up): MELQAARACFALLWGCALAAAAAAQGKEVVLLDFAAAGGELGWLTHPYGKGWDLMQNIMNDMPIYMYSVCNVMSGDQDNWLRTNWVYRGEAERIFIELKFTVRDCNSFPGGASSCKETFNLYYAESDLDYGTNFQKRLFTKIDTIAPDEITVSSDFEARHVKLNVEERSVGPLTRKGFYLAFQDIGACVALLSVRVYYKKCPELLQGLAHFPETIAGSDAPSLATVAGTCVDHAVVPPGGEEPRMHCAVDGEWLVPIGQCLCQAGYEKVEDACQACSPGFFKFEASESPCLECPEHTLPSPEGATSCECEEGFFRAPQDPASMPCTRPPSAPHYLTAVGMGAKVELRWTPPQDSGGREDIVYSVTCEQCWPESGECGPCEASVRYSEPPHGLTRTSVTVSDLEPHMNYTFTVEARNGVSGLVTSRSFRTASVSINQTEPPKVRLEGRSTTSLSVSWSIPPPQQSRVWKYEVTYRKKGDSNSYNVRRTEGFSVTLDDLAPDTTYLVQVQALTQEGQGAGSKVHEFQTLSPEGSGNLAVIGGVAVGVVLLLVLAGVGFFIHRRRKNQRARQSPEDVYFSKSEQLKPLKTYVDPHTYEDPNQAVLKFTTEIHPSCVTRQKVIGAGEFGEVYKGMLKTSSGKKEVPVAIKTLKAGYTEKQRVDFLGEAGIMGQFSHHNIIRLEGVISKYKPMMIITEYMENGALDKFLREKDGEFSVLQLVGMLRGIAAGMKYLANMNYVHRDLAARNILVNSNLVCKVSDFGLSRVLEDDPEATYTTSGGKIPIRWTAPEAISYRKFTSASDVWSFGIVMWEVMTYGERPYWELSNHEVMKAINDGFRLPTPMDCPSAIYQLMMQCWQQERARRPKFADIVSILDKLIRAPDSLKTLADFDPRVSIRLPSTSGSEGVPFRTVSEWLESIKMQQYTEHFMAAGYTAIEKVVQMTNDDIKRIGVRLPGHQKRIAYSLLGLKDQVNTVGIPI

EPHA4 (human) = EPHA4 (human) (UniProt P54764)
EPHA8 (human) = EPHA8 (human) (UniProt P29322)
EPHB3 (human) = EPHB3 (human) (UniProt P54753)
ERBB4 (human) = ERBB4 (human) (UniProt Q15303)
Sequence of ERBB4 (human) (Q15303 whole entry, looked up): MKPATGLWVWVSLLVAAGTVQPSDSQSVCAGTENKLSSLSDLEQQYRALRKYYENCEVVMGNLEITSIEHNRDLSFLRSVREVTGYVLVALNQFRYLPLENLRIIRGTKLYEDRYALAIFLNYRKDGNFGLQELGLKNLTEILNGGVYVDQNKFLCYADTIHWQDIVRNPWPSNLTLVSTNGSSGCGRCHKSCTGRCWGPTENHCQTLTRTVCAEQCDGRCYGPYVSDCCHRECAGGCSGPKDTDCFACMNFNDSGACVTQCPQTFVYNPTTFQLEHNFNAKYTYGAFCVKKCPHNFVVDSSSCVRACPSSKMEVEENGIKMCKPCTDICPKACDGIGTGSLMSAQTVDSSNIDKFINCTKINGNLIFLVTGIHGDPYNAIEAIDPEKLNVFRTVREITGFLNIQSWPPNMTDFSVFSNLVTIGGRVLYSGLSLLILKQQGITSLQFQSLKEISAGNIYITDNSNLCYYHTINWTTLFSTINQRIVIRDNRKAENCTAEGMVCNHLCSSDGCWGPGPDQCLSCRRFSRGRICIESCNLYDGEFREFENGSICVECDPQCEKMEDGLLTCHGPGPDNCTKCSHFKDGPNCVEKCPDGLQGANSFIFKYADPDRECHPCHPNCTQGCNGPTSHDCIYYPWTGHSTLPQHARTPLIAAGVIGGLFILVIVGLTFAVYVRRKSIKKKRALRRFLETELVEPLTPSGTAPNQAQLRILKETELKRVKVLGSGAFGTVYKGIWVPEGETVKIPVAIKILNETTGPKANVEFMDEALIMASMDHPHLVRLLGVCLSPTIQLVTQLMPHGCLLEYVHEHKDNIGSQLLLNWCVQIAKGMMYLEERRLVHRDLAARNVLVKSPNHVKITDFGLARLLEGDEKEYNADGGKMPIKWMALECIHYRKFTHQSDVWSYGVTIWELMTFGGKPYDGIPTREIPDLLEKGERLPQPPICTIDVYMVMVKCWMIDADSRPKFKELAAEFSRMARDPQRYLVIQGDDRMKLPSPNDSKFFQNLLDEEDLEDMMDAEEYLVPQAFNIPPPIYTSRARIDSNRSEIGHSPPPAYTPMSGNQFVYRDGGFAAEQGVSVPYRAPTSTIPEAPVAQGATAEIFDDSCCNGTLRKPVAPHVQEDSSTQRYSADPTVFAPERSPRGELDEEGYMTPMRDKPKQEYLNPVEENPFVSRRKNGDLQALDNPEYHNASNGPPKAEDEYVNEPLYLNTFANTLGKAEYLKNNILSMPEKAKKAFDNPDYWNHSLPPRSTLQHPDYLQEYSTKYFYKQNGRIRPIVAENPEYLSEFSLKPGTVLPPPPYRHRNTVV

[4] = system: FGFR3 (human), P22607 [G697C]
[5] = system: FLT3 (human), P36888 [D835H]
GSK3A (human) = GSK3A (human) (UniProt P49840)
Sequence of GSK3A (human) (P49840 whole entry, looked up): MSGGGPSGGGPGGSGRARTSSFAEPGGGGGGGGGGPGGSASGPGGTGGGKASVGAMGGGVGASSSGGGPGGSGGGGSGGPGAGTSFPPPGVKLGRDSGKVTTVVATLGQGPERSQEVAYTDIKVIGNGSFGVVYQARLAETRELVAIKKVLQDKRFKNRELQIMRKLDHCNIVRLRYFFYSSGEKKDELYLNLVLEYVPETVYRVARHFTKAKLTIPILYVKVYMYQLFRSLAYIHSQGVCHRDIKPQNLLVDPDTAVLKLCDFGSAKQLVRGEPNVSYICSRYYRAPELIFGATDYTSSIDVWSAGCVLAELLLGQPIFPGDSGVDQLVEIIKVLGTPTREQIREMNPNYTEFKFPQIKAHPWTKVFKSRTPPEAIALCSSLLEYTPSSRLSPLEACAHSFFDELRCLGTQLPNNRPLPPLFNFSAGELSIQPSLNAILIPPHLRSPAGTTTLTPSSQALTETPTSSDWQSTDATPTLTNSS

IKBKE (human) = IKBKE (human) (UniProt Q14164)
Sequence of IKBKE (human) (Q14164 whole entry, looked up): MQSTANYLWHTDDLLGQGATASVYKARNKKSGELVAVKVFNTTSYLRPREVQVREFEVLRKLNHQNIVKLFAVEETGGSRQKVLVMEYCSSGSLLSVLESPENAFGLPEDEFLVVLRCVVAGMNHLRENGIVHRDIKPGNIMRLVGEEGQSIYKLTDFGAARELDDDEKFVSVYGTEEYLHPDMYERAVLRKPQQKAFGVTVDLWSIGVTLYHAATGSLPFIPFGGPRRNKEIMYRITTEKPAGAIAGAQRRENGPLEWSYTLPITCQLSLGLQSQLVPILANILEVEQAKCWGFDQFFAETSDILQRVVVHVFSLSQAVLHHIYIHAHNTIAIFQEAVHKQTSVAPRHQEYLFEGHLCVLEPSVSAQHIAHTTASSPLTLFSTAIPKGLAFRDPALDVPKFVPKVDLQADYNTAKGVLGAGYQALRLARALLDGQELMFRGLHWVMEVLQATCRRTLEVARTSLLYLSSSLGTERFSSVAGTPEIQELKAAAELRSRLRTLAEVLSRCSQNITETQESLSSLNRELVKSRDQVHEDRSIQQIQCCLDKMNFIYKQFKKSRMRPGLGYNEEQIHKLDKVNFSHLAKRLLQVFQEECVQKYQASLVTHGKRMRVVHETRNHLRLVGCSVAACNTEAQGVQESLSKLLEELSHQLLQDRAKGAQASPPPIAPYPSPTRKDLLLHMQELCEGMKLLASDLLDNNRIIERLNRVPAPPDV

[6] = system: KIT (human), P10721 [V559D]
Sequence of KIT (human), P10721 [V559D] (P10721 whole entry V559D, looked up): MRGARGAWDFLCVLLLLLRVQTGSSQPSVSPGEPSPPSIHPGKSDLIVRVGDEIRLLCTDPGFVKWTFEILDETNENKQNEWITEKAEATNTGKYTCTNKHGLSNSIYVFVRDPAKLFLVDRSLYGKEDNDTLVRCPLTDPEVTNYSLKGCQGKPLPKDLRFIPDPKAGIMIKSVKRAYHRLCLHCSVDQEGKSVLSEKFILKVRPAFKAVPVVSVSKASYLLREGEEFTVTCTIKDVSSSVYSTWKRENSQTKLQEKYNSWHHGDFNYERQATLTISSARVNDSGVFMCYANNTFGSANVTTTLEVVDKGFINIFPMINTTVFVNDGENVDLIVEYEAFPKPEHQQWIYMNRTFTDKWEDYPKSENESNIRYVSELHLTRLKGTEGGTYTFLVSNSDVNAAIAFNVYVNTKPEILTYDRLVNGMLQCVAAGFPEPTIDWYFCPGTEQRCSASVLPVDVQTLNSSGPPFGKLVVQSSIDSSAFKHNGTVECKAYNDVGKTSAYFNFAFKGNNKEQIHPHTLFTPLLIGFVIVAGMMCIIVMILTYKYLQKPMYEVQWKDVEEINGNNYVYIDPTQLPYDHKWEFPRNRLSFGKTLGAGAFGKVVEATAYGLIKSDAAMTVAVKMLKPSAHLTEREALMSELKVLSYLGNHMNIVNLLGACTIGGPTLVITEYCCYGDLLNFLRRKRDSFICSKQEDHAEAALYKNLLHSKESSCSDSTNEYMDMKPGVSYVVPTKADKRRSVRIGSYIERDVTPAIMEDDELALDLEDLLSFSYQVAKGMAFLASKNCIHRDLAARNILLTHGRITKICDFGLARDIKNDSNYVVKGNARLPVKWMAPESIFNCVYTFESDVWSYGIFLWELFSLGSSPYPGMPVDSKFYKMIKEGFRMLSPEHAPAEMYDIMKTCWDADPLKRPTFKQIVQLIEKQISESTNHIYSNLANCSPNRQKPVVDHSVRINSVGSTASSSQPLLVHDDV

MAP2K6 (human) = MAP2K6 (human) (UniProt P52564)
MAP4K1 (human) = MAP4K1 (human) (UniProt Q92918)
MAPK9 (human) = MAPK9 (human) (UniProt P45984)
MINK1 (human) = MINK1 (human) (UniProt Q8N4C8)
MST1R (human) = MST1R (human) (UniProt Q04912)
NEK1 (human) = NEK1 (human) (UniProt Q96PY6)
NEK6 (human) = NEK6 (human) (UniProt Q9HC98)
NTRK1 (human) = NTRK1 (human) (UniProt P04629)
PIM2 (human) = PIM2 (human) (UniProt Q9P1W9)
PRKACA (human) = PRKACA (human) (UniProt P17612)
PRKCH (human) = PRKCH (human) (UniProt P24723)
PRKG1 (human) = PRKG1 (human) (UniProt Q13976)
RIPK4 (human) = RIPK4 (human) (UniProt P57078)
SRPK3 (human) = SRPK3 (human) (UniProt Q9UPE1)
STK10 (human) = STK10 (human) (UniProt O94804)
STK25 (human) = STK25 (human) (UniProt O00506)
TEC (human) = TEC (human) (UniProt P42680)
ULK3 (human) = ULK3 (human) (UniProt Q6PHR2)
Sequence of ULK3 (human) (Q6PHR2 whole entry, looked up): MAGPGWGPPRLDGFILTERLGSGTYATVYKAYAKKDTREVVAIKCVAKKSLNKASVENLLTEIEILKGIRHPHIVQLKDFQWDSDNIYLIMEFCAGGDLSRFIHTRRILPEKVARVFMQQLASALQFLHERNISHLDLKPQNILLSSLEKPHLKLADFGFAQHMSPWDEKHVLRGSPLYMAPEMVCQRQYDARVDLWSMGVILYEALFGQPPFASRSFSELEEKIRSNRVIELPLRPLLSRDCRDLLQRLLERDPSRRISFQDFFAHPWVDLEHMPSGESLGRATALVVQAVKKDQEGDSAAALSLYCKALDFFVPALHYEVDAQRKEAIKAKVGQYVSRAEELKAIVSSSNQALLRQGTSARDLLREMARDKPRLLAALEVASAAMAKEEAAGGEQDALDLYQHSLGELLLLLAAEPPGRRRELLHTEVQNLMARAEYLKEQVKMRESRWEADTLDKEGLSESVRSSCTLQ

Question: What does the source list for `CCN1CCN(Cc2ccc(NC(=O)c3ccc(C)c(/C=C/c4cnc(Nc5cc(N6CCNCC6)nc(C)n5)cn4)c3)cc2C(F)(F)F)CC1`?
Answer: kinase still bound, per cent of control [1]: 0.3%; kinase still bound, per cent of control [2]: 0.1%; kinase still bound, per cent of control (ANKK1 (human)): 9.6%; kinase still bound, per cent of control (AURKC (human)): 45%; kinase still bound, per cent of control (CDC2L2 (human)): 69%; kinase still bound, per cent of control (CDK11B (human)): 78%; kinase still bound, per cent of control (CDK15 (human)): 53%; kinase still bound, per cent of control (CDK18 (human)): 81%; kinase still bound, per cent of control (CDK2 (human)): 100%; kinase still bound, per cent of control (CHUK (human)): 0%; kinase still bound, per cent of control (CLK3 (human)): 100%; kinase still bound, per cent of control (DCLK3 (human)): 87%; kinase still bound, per cent of control [3]: 0.85%; kinase still bound, per cent of control (EIF2AK2 (human)): 80%; kinase still bound, per cent of control (EPHA1 (human)): 10%; kinase still bound, per cent of control (EPHA2 (human)): 5.4%; kinase still bound, per cent of control (EPHA4 (human)): 16%; kinase still bound, per cent of control (EPHA8 (human)): 0.35%; kinase still bound, per cent of control (EPHB3 (human)): 100%; kinase still bound, per cent of control (ERBB4 (human)): 7%; kinase still bound, per cent of control [4]: 23%; kinase still bound, per cent of control [5]: 2.4%; kinase still bound, per cent of control (GSK3A (human)): 81%; kinase still bound, per cent of control (IKBKE (human)): 90%; kinase still bound, per cent of control [6]: 0.05%; kinase still bound, per cent of control (MAP2K6 (human)): 100%; kinase still bound, per cent of control (MAP4K1 (human)): 0%; kinase still bound, per cent of control (MAPK9 (human)): 0.7%; kinase still bound, per cent of control (MINK1 (human)): 4.3%; kinase still bound, per cent of control (MST1R (human)): 85%; kinase still bound, per cent of control (NEK1 (human)): 91%; kinase still bound, per cent of control (NEK6 (human)): 100%; kinase still bound, per cent of control (NTRK1 (human)): 0.45%; kinase still bound, per cent of control (PIM2 (human)): 50%; kinase still bound, per cent of control (PRKACA (human)): 26%; kinase still bound, per cent of control (PRKCH (human)): 100%; kinase still bound, per cent of control (PRKG1 (human)): 100%; kinase still bound, per cent of control (RIPK4 (human)): 17%; kinase still bound, per cent of control (SRPK3 (human)): 82%; kinase still bound, per cent of control (STK10 (human)): 0%; kinase still bound, per cent of control (STK25 (human)): 35%; kinase still bound, per cent of control (TEC (human)): 24%; kinase still bound, per cent of control (ULK3 (human)): 1.6%
